{"source": "paper PMC5911580", "about": "“YL143, a novel mutant selective irreversible EGFR inhibitor, overcomes EGFR^L858R, T790M‐mutant resistance in vitro and in vivo” (Cancer Medicine, 2018)", "key": {"H1975 cells": {"system": "H1975 cells", "test": "Cell cycle analysis by flow cytometry (propidium iodide)", "assay_type": "cell-based, human", "procedure": "The effect of YL143 to induce cell cycle arrest and apoptosis in H1975 cells was investigated by flow cytometry analysis. […] Treatment with 300 nmol/L of YL143 for 48 h led to 82.11% G0/G1 phase arrest and 34.1% apoptosis. […] (Fig. 3C).\nFigure 3 YL143 induces G0/G1 cell cycle arrest and apoptosis in H1975 cells. (A) YL143 induces G0/G1 cell cycle arrest in H1975 cells H1975 cells were treated with 3, 30 or 300 nmol/L for 48 h before DNA labeling by propidium iodide and cell cycle analysis by flow cytometry. (B) YL143 induces apoptosis in H1975 cells. H1975 cells were treated with 3, 30 or 300 nmol/L for 48 h before DNA labeling by Annexin V and 7‐AAD and cell apoptosis analysis by flow cytometry. (C) The effect of YL143 on the expression of CDK4, Cyclin D2, CDK2, Cyclin E, Caspase‐9 and Caspase‐3 was tested by western blotting. The cells were treated with YL143 from 3 to 300 nmol/L for 48 h. Representative results are shown and similar results were obtained in three other independent trials. […]"}, "EGFR^T790M": {"molecular_target": "T1, EGFR^T790M (Homo sapiens, UniProt P00533, T790M)", "T1 construct": "purchased Invitrogen", "T1 sequence (P00533 25-1210 T790M)": "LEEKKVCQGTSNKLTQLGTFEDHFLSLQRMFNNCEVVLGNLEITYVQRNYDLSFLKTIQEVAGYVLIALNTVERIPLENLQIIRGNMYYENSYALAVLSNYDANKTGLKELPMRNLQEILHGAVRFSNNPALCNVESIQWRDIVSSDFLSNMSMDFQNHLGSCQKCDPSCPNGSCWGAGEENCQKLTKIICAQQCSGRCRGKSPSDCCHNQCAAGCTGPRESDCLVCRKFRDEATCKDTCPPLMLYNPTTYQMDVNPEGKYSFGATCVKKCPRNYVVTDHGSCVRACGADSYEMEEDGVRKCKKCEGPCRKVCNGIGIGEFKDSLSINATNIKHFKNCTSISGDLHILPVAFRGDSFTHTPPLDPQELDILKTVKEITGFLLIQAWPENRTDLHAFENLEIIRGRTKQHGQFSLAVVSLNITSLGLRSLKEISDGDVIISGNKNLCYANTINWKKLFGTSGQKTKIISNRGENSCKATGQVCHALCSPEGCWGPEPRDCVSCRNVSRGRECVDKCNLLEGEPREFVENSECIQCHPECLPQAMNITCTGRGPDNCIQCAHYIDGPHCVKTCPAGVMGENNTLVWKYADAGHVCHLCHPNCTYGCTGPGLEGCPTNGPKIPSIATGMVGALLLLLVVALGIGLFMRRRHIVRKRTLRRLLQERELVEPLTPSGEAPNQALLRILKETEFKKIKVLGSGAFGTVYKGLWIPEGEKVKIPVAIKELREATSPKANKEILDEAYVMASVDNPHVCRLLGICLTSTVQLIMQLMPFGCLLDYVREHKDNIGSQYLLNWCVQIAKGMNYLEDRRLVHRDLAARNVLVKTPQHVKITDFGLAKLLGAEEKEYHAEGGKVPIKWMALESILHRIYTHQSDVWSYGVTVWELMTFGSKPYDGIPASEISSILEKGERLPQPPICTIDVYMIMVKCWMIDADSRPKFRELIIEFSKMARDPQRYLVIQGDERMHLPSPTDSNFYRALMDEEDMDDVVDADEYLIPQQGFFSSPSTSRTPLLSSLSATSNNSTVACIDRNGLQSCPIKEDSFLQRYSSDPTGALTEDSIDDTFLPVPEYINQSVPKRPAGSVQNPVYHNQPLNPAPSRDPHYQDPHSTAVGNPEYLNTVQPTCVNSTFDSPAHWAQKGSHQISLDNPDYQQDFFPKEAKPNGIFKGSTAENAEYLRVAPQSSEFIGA", "test": "FRET-based Z'-Lyte kinase assay, EGFR T790M", "assay_type": "biochemical", "settings": "AV ± SD; 1.5 h incubation", "procedure": "(§1) The kinase activity assay was performed and optimized according to the instructions of Z’‐LYTE™ kinase assay kits from the manufacturer (PV4879, Life, America). In our experiments, 10 concentration gradients from 0.01 nmol/L to 1.0 μmol/L were used for all the compounds."}, "EGFR^WT": {"molecular_target": "T2, EGFR^WT (Homo sapiens, UniProt P00533)", "T2 construct": "purchased Invitrogen", "T2 sequence (P00533 25-1210)": "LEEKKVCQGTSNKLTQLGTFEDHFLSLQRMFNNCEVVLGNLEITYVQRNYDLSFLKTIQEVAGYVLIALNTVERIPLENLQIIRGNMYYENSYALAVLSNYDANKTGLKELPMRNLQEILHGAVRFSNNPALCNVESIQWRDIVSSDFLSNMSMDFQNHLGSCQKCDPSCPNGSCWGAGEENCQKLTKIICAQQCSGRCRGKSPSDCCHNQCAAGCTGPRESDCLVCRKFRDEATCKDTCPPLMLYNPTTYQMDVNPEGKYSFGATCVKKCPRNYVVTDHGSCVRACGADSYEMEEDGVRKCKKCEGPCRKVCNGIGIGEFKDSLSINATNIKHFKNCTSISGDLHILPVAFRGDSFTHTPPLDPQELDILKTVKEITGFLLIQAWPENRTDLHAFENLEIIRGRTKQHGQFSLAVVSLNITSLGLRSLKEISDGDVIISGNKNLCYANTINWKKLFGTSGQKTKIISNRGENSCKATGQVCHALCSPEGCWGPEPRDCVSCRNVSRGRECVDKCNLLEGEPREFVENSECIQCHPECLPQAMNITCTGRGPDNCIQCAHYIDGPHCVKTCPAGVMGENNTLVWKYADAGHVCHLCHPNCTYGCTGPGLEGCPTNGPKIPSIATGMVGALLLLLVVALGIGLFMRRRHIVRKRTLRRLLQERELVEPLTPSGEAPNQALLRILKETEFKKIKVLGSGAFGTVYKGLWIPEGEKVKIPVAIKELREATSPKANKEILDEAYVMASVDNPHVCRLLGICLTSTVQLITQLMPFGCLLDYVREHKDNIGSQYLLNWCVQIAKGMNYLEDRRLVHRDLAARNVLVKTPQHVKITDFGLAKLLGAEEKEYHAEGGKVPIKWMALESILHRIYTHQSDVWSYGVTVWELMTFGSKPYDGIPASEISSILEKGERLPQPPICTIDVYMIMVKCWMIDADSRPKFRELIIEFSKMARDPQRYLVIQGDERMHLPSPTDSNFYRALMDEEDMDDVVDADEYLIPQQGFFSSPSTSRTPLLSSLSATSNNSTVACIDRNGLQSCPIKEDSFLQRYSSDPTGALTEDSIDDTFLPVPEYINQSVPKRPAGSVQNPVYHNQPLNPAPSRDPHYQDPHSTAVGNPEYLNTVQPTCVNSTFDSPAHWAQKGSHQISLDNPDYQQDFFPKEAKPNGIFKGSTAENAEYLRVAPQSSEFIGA", "test": "FRET-based Z'-Lyte kinase assay, EGFR WT", "assay_type": "biochemical", "settings": "AV ± SD; 1.5 h incubation", "procedure": "as §1"}, "ZAK": {"molecular_target": "ZAK (Homo sapiens, UniProt Q9NYL2)", "sequence (Q9NYL2 whole entry, species assumed)": "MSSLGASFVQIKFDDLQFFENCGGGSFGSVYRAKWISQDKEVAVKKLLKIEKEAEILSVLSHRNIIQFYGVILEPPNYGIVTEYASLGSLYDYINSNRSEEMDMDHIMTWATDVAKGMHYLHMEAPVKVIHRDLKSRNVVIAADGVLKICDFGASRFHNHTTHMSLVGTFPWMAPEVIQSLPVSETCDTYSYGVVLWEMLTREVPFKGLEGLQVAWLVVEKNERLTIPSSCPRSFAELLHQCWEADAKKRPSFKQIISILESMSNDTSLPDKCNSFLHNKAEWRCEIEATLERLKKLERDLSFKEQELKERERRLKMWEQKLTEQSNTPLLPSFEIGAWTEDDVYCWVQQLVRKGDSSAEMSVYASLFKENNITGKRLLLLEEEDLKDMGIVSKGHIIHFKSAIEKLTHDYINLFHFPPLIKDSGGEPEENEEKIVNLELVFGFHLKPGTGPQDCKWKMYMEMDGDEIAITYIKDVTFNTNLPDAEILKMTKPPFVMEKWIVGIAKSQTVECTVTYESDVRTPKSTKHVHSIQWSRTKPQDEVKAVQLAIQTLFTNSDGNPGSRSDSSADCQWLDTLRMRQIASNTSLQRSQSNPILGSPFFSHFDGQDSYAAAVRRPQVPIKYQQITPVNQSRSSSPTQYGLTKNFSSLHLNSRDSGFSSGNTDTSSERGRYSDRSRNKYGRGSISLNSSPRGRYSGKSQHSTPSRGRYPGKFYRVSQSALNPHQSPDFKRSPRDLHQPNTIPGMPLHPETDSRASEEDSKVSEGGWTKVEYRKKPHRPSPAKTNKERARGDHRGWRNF", "test": "Z'-Lyte kinase panel, ZAK", "assay_type": "biochemical", "settings": "1.5 hrs incubation", "procedure": "(§2) Kinase activity assays were performed using the FRET-based Z′-Lyte assay according to the manufacturer’s instructions. The compounds were incubated with the kinase reaction mixture for 1.5 hrs before measurement. The data are means from two independent experiments and the variations are below 20%."}, "A549 (EGFR^WT) cells": {"system": "A549 (EGFR^WT) cells", "test": "CCK-8 cell growth assay, A549", "assay_type": "cell-based", "settings": "Homo sapiens, A549; CCK-8, 72 h; read-out: antiproliferative IC50 A549", "procedure": "(§3) Cells were seeded into 96‐well plates at a density of 1500~3000/well in complete medium overnight. Then, cells were treated with various concentrations (0.01~1000 nmol/L) of YL143 for additional 3 days. Viable cell numbers were determined by Cell Counting Kit 8 (CCK8, CK04, Dojindo Laboratories, Japan). Each assay consisted of three replicate wells and repeated at least three times. […] Each IC50 value was expressed as mean ± SD."}, "BaF3-EGFR ^L858R": {"system": "BaF3-EGFR ^L858R", "test": "CCK-8 assay, BaF3-EGFR L858R stable cells", "assay_type": "cell-based", "settings": "Ba/F3 EGFR-L858R; CCK-8; AV±SD; read-out: anti-proliferative activity BaF3-EGFR L858R", "procedure": "as §3\nThe anti-proliferative activities of the compounds were evaluated using CCK-8 assay. The data were means from at least four independent experiments."}, "EGFR": {"molecular_target": "T3, EGFR (Homo sapiens, UniProt P00533)", "T3 construct": "purchased Invitrogen", "T3 sequence (P00533 669-1210 limits assumed)": "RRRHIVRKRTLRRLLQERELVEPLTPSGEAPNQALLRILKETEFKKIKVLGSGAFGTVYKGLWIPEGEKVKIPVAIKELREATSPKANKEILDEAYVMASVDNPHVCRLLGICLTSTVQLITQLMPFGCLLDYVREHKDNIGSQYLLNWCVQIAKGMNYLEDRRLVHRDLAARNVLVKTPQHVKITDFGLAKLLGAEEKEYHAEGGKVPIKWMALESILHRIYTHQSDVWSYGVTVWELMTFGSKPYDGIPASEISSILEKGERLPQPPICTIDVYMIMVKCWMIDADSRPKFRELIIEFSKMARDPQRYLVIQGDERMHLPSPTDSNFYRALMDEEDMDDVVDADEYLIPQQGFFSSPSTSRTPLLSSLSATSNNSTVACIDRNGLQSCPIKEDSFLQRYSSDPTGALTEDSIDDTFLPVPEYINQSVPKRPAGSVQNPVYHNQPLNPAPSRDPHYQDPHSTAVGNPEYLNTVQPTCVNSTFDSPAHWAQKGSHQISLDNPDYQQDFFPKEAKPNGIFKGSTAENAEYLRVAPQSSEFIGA", "test": "Z'-Lyte kinase panel, EGFR", "assay_type": "biochemical", "settings": "1.5 hrs incubation", "procedure": "as §1, with “All EGFR (WT, L858R, L858R/T790M, etc.) recombinant human protein was purchased from Invitrogen. The” for “The”\nas §2"}, "PDGFRB": {"molecular_target": "PDGFRB (Homo sapiens, UniProt P09619)", "sequence (P09619 33-1106, species assumed)": "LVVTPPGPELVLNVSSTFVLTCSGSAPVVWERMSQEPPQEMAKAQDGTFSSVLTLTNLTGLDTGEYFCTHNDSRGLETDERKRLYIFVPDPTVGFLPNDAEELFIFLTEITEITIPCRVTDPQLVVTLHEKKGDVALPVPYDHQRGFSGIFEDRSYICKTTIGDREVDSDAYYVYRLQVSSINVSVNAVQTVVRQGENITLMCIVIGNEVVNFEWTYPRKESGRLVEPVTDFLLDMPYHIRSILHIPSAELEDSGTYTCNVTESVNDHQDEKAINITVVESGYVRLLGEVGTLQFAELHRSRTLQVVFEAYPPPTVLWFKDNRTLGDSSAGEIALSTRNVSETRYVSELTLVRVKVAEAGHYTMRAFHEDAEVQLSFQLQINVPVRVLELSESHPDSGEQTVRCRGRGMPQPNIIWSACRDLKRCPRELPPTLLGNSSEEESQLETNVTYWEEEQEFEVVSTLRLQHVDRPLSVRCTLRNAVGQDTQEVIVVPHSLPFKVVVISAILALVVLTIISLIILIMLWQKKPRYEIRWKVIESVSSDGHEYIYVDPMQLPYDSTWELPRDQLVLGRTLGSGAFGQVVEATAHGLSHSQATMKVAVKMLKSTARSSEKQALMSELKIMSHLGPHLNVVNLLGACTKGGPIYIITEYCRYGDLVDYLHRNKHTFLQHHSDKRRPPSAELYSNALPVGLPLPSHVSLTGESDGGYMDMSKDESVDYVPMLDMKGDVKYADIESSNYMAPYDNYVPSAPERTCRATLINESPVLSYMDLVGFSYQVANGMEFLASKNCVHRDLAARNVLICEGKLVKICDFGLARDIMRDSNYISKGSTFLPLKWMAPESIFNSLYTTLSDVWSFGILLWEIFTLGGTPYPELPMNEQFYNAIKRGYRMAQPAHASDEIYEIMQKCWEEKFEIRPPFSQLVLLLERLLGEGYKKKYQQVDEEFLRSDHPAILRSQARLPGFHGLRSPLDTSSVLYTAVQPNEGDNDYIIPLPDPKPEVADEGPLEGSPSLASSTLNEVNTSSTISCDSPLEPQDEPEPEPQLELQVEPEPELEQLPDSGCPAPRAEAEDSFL", "test": "Z'-Lyte kinase panel, PDGFRB", "assay_type": "biochemical", "settings": "1.5 hrs incubation", "procedure": "as §2"}, "H1975 xenograft": {"system": "H1975 xenograft", "test": "H1975 tumor xenograft in CB17-SCID mice", "assay_type": "in vivo", "settings": "30 mg/kg, po, qd", "procedure": "Male CB17‐SCID mice were purchased from Vital River Laboratory Animal Technology Inc. (Beijing, China). H1975 cells (5 × 10^6/mouse) were injected subcutaneously in the right flanks of mice. […] All the compounds were suspended in 0.5% CMC‐Na aqueous solution. The tumor volume and body weight of animals were measured once every 2 days. Tumor volume was calculated as the L × W ^2/2 (L and W are the length and width of the tumor, respectively). All animal experiments were approved by the Institutional Animal Use and Care Committee of Guangzhou Institute of Biomedicine and Health, Chinese Academy of Science."}}, "note": "Entries after “also recorded” stand apart in the source; their conditions may differ."}
{"smiles": "C=CC(=O)Nc1cc(C)cc(-n2c(=O)cc(C)c3cnc(Nc4ccc(N5CCN(C)CC5)cc4OC)nc32)c1", "note": "[YL143, N‐(3‐(2‐((2‐Methoxy‐4‐(4‐methylpiperazin‐1‐yl)phenyl)amino)‐5‐methyl‐7‐oxopyrido [2,3‐d]pyrimidin‐8(7H)‐yl)‐5‐methylphenyl)acrylamide]", "values": [{"measurement": "G0/G1 phase fraction", "setting": "H1975 cells; 300 nmol/L, 48 h", "value": 82.11, "unit": "%"}, {"measurement": "cell cycle arrest and apoptosis", "setting": "H1975 cells; H1975 cells, 30 nmol/L", "value": "induces G0/G1 phase arrest and apoptosis"}, {"measurement": "IC50", "setting": "EGFR^T790M", "value": "7.8 ± 1.1", "unit": "nM"}, {"measurement": "IC50", "setting": "EGFR^WT", "value": "185 ± 43.4", "unit": "nM"}, {"measurement": "IC50", "setting": "ZAK", "value": "> 10000", "unit": "nM"}, {"measurement": "IC50", "setting": "A549 (EGFR^WT) cells", "value": "> 1000", "unit": "nM"}, {"measurement": "IC50", "setting": "BaF3-EGFR ^L858R", "value": "71 ± 41", "unit": "nM"}, {"measurement": "IC50", "setting": "EGFR", "value": 35.3, "unit": "nM"}, {"measurement": "IC50", "setting": "PDGFRB", "value": "> 10000", "unit": "nM"}, {"measurement": "TUNEL stain of the tumor tissue", "setting": "H1975 xenograft; 18 days", "value": "induced apoptosis"}, {"measurement": "antitumor efficacy", "setting": "H1975 xenograft; 18 days", "value": "promising antitumor efficacy; also recorded: comparable in vivo antitumor effect to that of CO1686"}, {"measurement": "tolerability (mortality, body weight)", "setting": "H1975 xenograft; 18 days", "value": "well tolerated; also recorded: without significantly toxic signs"}, {"measurement": "hyperglycemia side effect (blood glucose)", "setting": "H1975 xenograft; day 7 and 14, compared with CO1686", "value": "weaker hyperglycemia side effect"}]}
